Values of other authors as cited in patent US20220184108A1, “PHARMACEUTICAL AND NUTRITIONAL COMPOSITION TO MAXIMIZE NAD ENZYME'S HEALTH BENEFITS” (East West Products Corp., priority 2020, published 2022).

Experiments:
[1] = doses of up to 500 mg; human study, Keio University School of Medicine
Slc12a8 NMN transporter = target: T1, Slc12a8 NMN transporter (Mus musculus, UniProt Q8VI23); details: mice; through the Slc12a8 NMN transporter
T1 sequence (Q8VI23 1-705): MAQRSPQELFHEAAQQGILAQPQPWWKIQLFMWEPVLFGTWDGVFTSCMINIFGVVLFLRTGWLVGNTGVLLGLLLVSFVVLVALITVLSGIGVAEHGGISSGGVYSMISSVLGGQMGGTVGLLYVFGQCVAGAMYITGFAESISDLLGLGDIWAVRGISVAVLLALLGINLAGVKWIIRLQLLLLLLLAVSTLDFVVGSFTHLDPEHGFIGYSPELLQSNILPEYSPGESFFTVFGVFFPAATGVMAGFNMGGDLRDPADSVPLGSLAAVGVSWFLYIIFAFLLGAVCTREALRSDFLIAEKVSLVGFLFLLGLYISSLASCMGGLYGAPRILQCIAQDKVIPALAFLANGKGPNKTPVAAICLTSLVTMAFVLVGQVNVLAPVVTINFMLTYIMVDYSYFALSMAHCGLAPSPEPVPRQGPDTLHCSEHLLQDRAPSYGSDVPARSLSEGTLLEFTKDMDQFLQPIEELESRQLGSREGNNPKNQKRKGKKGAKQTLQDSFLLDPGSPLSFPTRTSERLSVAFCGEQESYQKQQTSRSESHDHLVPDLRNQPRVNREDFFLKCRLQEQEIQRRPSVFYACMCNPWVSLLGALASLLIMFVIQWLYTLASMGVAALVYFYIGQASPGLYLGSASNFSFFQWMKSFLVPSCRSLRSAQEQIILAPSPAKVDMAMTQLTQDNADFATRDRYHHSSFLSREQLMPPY

Compound: NC(=O)c1ccc[n+]([C@@H]2O[C@H](COP(=O)([O-])O)[C@@H](O)[C@H]2O)c1 [NMN, Nicotinamide mononucleotide]
- safety in men [1]: safe
- time for NMN to enter cells via the small intestines converting to NAD+ (Slc12a8 NMN transporter): ≤ 10 min
